Experimental data as given in patent US12606559B2, “JAK inhibitor compounds, methods for synthesizing same and use thereof” (GALDERMA HOLDING SA, priority 2020, dated 2026).
“Also recorded” adds a separate entry of the source. Where two headings read alike, the source gives them in different places.

Columns and labels:
[1] = Systemic level in PD/IL6 mouse topical dose response; settings: topical 10 mM, PG/Acetone/Transcutol
[2] = Intrinsic clearance in mouse hepatocytes; assay type: in vitro ADME, male balb-c mouse; settings: 2.5 μM
Experimental: (§1) The intrinsic clearance was assessed in cryopreserved Hepatocytes obtained by Human livers donors of mix gender pooled together, male balb-c mouse, male Wistar Han rats and male Göttingen minipig, by looking at the parent compound disappearance. The incubations were performed using a final concentration of viable cells of 1 million/ml (viability above 70%) and test item of 2.5 μM. Incubations were followed up to 2 h. Aliquotes were withdrawn at different time points and reaction quenched with acetonitrile. After centrifugation the supernatant was analyzed by HPLC/MS to quantify the remaining amount of parent in comparison with time 0. The clearance was calculated by fitting the log of the percentage remaining with Graphpad Prism ver.7.

[3] = Protein binding analysis (RED), mouse plasma; assay type: in vitro ADME, male balb-c mice; settings: 5 μM, RED 4 h
Experimental: (§2) The protein binding was assessed in plasma of Human, male balb-c mice, male Wistar Han rat, male Gottingen minipig by rapid equilibrium dialysis (RED) devices. After the plasma and buffer phosphate 50 mM pH7.4 were equilibrated at 37° C., the compound was added to plasma to reach a final concentration of 5 μM. An aliquot of plasma was withdrawn immediately. Equilibration under mild agitation was continued for 4 h. The plasma and buffer were sampled and samples were quenched with 4 volumes of acetonitrile and centrifuged. Supernatant was quantified in HPLC/MS/MS to calculate the recovery and the percentage of compound dissolved in the buffer (unbound) and bound to plasma proteins.

[4] = In vivo pharmacokinetic analysis in rat, iv; design: species or system male Wistar Han rat; settings: iv 1 mg/kg
Experimental: (§3) One male Wistar Han rat. Compound was administered intravenously to fed animal at a target dose of 1 mg/kg, dose volume: 2 mL/kg, in DMSO/hydroxypropyl-beta-cyclodextrin 20% in phosphate buffer 60 mM pH 7 (5:95). Blood samples were collected at various time points. Blood samples were then assayed using a method based upon protein precipitation with acetonitrile followed by LC/MS/MS analysis. Non-compartmental methods were used for pharmacokinetic analysis of blood concentration versus time data

[5] = Thermodynamic solubility PG_H2O pH 6 2/8; assay type: physicochemical; settings: amorphous, no cristalline material available
IL6 signalling in hWB = assay: hWB assay, IL6; assay type: cell-based, human; settings: Homo sapiens, read-out: hWB assay: IC50 IL6
[6] = system: IL-6 induced Phospho-STAT3 (Tyr705) in TF-1 cells; assay: In vitro cellular pSTAT3 assay, IL-6 stimulated TF-1 cells; assay type: cell-based; settings: Homo sapiens
[7] = Protein binding analysis (RED), human plasma; assay type: in vitro ADME; settings: 5 μM, RED 4 h
Experimental: as §2

[8] = Protein binding analysis (RED), rat plasma; assay type: in vitro ADME, male Wistar Han rat; settings: 5 μM, RED 4 h
Experimental: as §2

[9] = Human skin ex vivo: flux through skin and dermis concentration (Franz cells); assay type: in vitro ADME; settings: PG/H2O cream 1 mg/mL
[10] = Kinetic aqueous solubility; assay type: physicochemical
[11] = In vivo pharmacokinetic analysis in minipig, iv; design: species or system male Göttingen minipigs; settings: iv 1 mg/kg
Experimental: as §3, with “Three” for “One”, “Göttingen minipigs.” for “Wistar Han rat.”, “animals” for “animal”, “volume 1” for “volume: 2”, “DMSO: hydroxypropyl-β-cyclodextrin” for “DMSO/hydroxypropyl-beta-cyclodextrin”, “data.” for “data”

[12] = Intrinsic clearance in human hepatocytes; assay type: in vitro ADME; settings: 2.5 μM
Experimental: as §1

[13] = Intrinsic clearance in minipig hepatocytes; assay type: in vitro ADME, male Göttingen minipig; settings: 2.5 μM
Experimental: as §1

[14] = Intrinsic clearance in rat hepatocytes; assay type: in vitro ADME, male Wistar Han rats; settings: 2.5 μM
Experimental: as §1

[15] = system: 44 targets (binding and enzyme/uptake assays); assay: CEREP Safety Screen-44; settings: 10 μM
Experimental: An in vitro pharmacology assay was conducted to assess the capability of the compounds to interact with different pharmacological targets when tested at 10 μM in different binding and enzyme/uptake assays. The included targets are indicative of potential effects in major organs and drug-drug interactions.
Compound binding was calculated as a % inhibition of the binding of a radioactively labelled ligand specific for each target. […] […].

Which “PD/IL6 mouse top DR 0.01-10 mM: Systemic level @ 10 mM - 2 hrs” value [1] does the source give for N#CC[C@H](C1CCCC1)n1cc(-c2ncnc3[nH]ccc23)cn1 [Ruxolitinib, reference compound] here?
Its value is 81 nM.

And the “Intr. Clear. mheps” value [2]?
The value was 150 microL/min/10 6 cells.

And the mFU [3]?
Its mFU is 7.7%.

What about the “iv PK rat: Cl (value in brackets, %)” value [4] of the same compound?
Its value is 51%.

And the “Sol PG_H2O pH 6 2/8, amorphous material” value [5]?
The value was “material available-1 mM; also recorded: (0.3 mg/mL)-amorphous)”.

And the IC50 (IL6 signalling in hWB)?
The IC50 was 6900 nM.

And the IC50 ([6]; TF-1, read-out: Cellular Assay: IC50 IL6)?
Its IC50 is 8 nM.

What about the IC50 ([6]; TF-1, read-out: Free IC50) of the same compound?
The IC50 was 200 nM.

What about the hFU [7] of the same compound?
Its hFU is 4%.

And the rFU [8]?
The rFU was 13%.

What about the “measured flux 6-24 hr” value [9] of the same compound?
Its value is 5.3 ng/cm^2/hr.

What about the Kinetic aq sol [10] of the same compound?
The Kinetic aq sol was 232/ND (no cristalline microM.

What about the “iv PK minipig: Cl (value in brackets, %)” value [11] of the same compound?
The value was 68%.

What about the “Intr. Clear. h heps” value [12] of the same compound?
The value was 4.4 microL/min/10 6 cells.

What about the “Intr. Clear. minipig heps” value [13] of the same compound?
The value was 141 microL/min/10 6 cells.

What about the “Intr. Clear. rheps” value [14] of the same compound?
The value was 300 microL/min/10 6 cells.

And the “Safety panel (Cerep): 44 targets % inh @ 10 microM, Nb of targets > 50% inh” value [15]?
The value was 0/44.
